The subject of this assay is mice subjected to controlled cortical impact injury. Kind of assay: Residual cerebral tissue ratio, cresyl violet staining. It counts as in vivo. The note with it: day 28; for preservation of brain tissue (ipsilateral/contralateral hemisphere volume): vehicle 76.4±3.3%, P<0.05. The procedure:
All animal procedures were approved by the Animal Research Committee at Cheng Hsin General Hospital (Animal permit number CHIACUC 101–08), and all procedures complied with the Guide for the Care and Use of Laboratory Animals published by the US National Institutes of Health (NIH Publication No. 85–23, revised 1996). Animals were housed under a 12-h light/dark cycle and at constant temperature (21–25°C) and humidity (45–50%). They were allowed free access to pellet chow and water. TBI in mice was induced by a CCI injury model as previously described. Briefly, 8-week-old male C57BL/6 mice (weighing 22–25 g) were anesthetized through the use of intraperitoneal injection of sodium pentobarbital (65 mg/kg; Rhone Merieux, Harlow, UK) and placed in a stereotaxic frame. A 5 mm craniotomy was performed over the right parietal cortex, centered on the coronal suture and 0.1 mm lateral to the sagittal suture, and injury to dura was avoided. Injury was induced using a pneumatic piston with a rounded metal tip (2.5 mm diameter) that was angled 22.5° to the vertical so that the tip was perpendicular with the brain surface at the center of the craniotomy. The impact, with a velocity of […] and a deformation depth of 2 mm below the dura, was applied. The bone flap was immediately replaced and sealed, and the scalp was sutured. Body temperature was monitored throughout the surgery by a rectal probe; temperature was maintained at 37.0±0.5°C using a heated pad. Mice were placed in a heated cage to maintain body temperature, while recovering from anesthesia. Sham-operated mice underwent the same procedure as injured mice, but without CCI.
Mice were anesthetized and positioned in a stereotaxic frame. LY294002 (200 nM in 0.5 µL of saline) or equal amount of physiological saline was intracerebroventricularly (icv) injected at 30 min before CCI as previously described. A 1 mm cranial burr hole was drilled into the skull. A 30-gauge needle on a Hamilton syringe was implanted into the lateral ventricle using stereotactic coordinates: 1.5 mm posterior to bregma and 1.0 mm right lateral to the midline, 2 mm in depth. LY294002 or saline was infused into the brain at a rate of 0.05 µL/min over 10 min with an infusion pump (KDS 310, KD Scientific Inc., Holliston, MA, USA), and the needle was left in place for an additional 20 min to prevent reflux. After the needle was removed, CCI procedure was conducted immediately. Sham-operated mice were infused icv with saline, but were not subjected to CCI.
Three sets of experiments were performed. […] To determine the optimal dose of salidroside, a pilot study was performed using 2 different doses (20 and 50 mg/kg) administered 10 min after injury, and neurological deficits and tissue damage were evaluated as the main outcomes. […]

With `OC[C@H]1O[C@@H](OCCc2ccc(O)cc2)[C@H](O)[C@@H](O)[C@@H]1O` [SALD, salidroside], the “preservation of brain tissue (ipsilateral/contralateral hemisphere volume)” value (20 mg/kg ip 10 min after CCI) was 81.9±2.6% and the “preservation of brain tissue (ipsilateral/contralateral hemisphere volume)” value (50 mg/kg ip 10 min after CCI) is reported as 80.7±2.8%. In addition, the “residual cerebral tissue ratio” value (icv saline 30 min before CCI, then SALD 20 mg/kg ip (S20S group)) amounted to 80.5±5.8%.

The values above are taken from PMC3454376, “Salidroside Improves Behavioral and Histological Outcomes and Reduces Apoptosis via PI3K/Akt Signaling after Experimental Traumatic Brain Injury” (PLoS ONE, 2012).
